Here are results for one sequence from publication PMC5418314, “First-in-human phase I study of SOR-C13, a TRPV6 calcium channel inhibitor, in patients with advanced solid tumors” (Investigational New Drugs, 2017).

Data set [1] in a line: half-life in the blood compartment, dog. In kind it is in vivo.
Data set [2] concerns voltage-gated calcium channels. Nature of the data set: voltage-gated calcium channel activity. The class given is biochemical.
Data set [3] is described as follows: GLP toxicology study, daily IV bolus for 28 days, rat. The class given is in vivo. The method, then: (§1) Anatomical pathology provided a No Observable Adverse Effect Level (NOAEL) of 200 mg/kg/day for rats. […] With results indicating antitumor activity in animal studies, a small toxicological footprint, a novel oncology target and a mechanism of action supported by the literature, SOR-C13 was formulated for intravenous injection (IV) for clinical evaluation. Here we present results of the ‘first-in-human’, Phase I clinical study evaluating SOR-C13 in adults with advanced solid tumors of epithelial origin refractory to all standard-of-care treatments.

A short description of data set [4]: GLP toxicology study, daily IV bolus for 28 days, dog. In kind it is in vivo, beagle dogs. The method, then:
as §1

Data set [5] in a line: half-life in the blood compartment, mice. In kind it is in vivo.
Data set [6] has as its system voltage-gated sodium channels. As to the kind of experiment: voltage-gated sodium channel activity. In kind it is biochemical.
The next data set has as its target hERG (Homo sapiens, UniProt Q12809). Nature of the data set: hERG channel activity. The class given is biochemical. (hERG is a cardiac potassium channel; its block is linked to QT prolongation.)

Ends that are not written are not given here.

hERG, sequence (Q12809 whole entry): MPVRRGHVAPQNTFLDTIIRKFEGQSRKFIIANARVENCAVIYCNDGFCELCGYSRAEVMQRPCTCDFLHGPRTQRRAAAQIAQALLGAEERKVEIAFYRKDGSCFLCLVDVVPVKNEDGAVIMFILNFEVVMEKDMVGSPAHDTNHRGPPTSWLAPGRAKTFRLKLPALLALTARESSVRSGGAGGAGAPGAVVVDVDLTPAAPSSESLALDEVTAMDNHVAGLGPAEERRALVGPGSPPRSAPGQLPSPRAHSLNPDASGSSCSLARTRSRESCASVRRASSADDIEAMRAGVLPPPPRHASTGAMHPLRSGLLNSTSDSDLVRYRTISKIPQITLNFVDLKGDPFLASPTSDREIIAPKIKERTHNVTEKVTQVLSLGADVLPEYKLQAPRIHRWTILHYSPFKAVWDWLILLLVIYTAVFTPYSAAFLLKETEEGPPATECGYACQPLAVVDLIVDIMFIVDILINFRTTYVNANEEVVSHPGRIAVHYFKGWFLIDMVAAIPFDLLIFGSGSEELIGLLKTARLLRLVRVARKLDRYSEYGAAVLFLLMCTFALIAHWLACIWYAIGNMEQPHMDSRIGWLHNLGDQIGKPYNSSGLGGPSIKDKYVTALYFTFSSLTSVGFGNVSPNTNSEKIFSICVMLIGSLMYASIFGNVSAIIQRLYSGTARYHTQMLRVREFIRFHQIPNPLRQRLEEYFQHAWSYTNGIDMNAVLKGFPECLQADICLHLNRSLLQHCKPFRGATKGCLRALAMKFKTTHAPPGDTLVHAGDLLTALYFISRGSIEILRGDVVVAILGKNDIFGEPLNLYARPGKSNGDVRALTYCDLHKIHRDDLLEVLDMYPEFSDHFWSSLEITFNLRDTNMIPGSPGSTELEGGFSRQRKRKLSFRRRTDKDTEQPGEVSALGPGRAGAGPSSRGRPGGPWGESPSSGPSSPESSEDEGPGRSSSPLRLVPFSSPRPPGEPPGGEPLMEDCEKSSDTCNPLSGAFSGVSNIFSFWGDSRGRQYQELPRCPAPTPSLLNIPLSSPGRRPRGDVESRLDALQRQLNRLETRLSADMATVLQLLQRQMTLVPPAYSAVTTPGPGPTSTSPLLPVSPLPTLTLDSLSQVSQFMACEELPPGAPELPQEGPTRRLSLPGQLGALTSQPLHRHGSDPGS

Consider KEFLHPSKVDLPR [SOR-C13], for which the “half-life in the blood compartment” value in data set [1] and in data set [5] was under 5 min in each case. Moreover, the “modulation of channel activity” value (in data set [2]; in data set [6]; at hERG) was “no modulation of channel activity” throughout. Besides, the antigenicity result in data set [3] and in data set [4] was “no antigenicity” each time. The cardiovascular toxicity result in data set [3] and in data set [4] was “no cardiovascular toxicity” each time. For the same sequence, the toxicity entry in data set [3] and in data set [4] was “minimal toxicity” in each case.
